Patent US10822318B2, “Lactone-based probes and methods of use thereof” (REGENTS OF THE UNIVERSITY OF MINNESOTA, priority 2017, dated 2020)

Columns and labels:
S. pneumoniae cells = assay: 3D-SIM imaging of lactone probe labeled cells; assay type: cell-based; conditions: for late divisional cells showing central septal labeling: untreated, ≈41 cells examined
Experimental: Cells from an overnight culture were diluted to OD620 0.02 in 2 ml of fresh BHI prewarmed to 37° C. and incubated at 37° C. in an atmosphere of 5% CO2. At OD620 0.2, 1.5 ml of culture was added to a microfuge tube and centrifuged at room temperature for 5 min at 16000×g. The supernatant was discarded, the pellet was resuspended in 1 ml room temperature PBS, and the culture was centrifuged a second time. The supernatant was discarded and the pellet was resuspended in either 50 μl of PBS with 5 μg mL^−1 7FL or 100 μl PBS with 5 μg mL^−1 8T. The cells were incubated for 20 min at room temperature in the dark. After incubation the cells were spun and washed with 1 ml of PBS (7FL) or 1 ml of PBS containing 50 mM glucose (8T). The cells were spun a second time and washed with 200 μl of PBS (7FL) or 200 μl of PBS with 50 mM glucose (8T), and finally spun a third time and resuspended in 100 μl of cold (4° C.) GTE buffer (50 mM glucose, 20 mM Tris pH 7.5, 1 mM EDTA). The cells were spun down at 4° C., the supernatant was discarded, and the pellet was resuspended in 15 μl of Vectashield Hardest Antifade (Vector Labs) and kept on ice. 1.2 μl of cells in antifade was pipetted onto a clean coverslip, applied to a slide, and imaged via 3D-SIM. 3D-SIM was performed using the OMX 3D-SIM super-resolution system located in the Indiana University Bloomington Light Microscopy Imaging Center (www.indiana.edu/˜lmic/microscopes/index.html#OMX). The system used is equipped with four Photometrics Cascade II EMCCD cameras that allow simultaneous imaging of up to four colors, and is controlled by DV-OMX software, with image processing by Applied Precision softWoRx 6.0.0 software. Exposure times and % T settings for DAPI, Alexa 488, and Alexa 568 images were 5 ms and 100% for all three channels.
For pre-treatment with methicillin followed by lactone probe labeling, duplicate 2 ml cultures of each strain were created and incubated as described above. At OD620 0.12, methicillin was added to a final concentration of 0.1 μg mL^−1 to one culture for each strain, and the strains were placed back in the incubator. After 20 min, all cultures were harvested, labeled, and imaged as described above.
For labeling of cells with both lactone probes, the following changes were made: After a 20 min incubation with 7FL, the cells were spun down and washed once in 1 ml of PBS. The cells were spun again and resuspended in 100 μl of 8T in PBS at 5 μg mL^−1. The cells were incubated for 20 min at room temperature in the dark, and then washed and imaged as described above for 8T labeling.

PBPs = assay: Gel-based analysis of PBP labeling by β-lactone probes in S. pneumoniae cells; assay type: cell-based; conditions: S. pneumoniae whole cells, probe 5 μg/ml, 20 min
Experimental: Strain IU1945, an unencapsulated derivative of serotype 2 S. pneumoniae strain D39, was grown statically in brain heart infusion (BHI) medium in 100×17 mm tubes by incubation in an atmosphere of 5% CO2 at 37° C. to an OD620 of ˜0.2. For labeling experiments, overnight cultures that were still in exponential phase (OD620=0.1-0.4) were diluted to OD620=0.002-0.004 and grown as above. Samples with OD620=0.15-0.20 were utilized in labeling experiments conducted as previously described (Kocaoglu, O, et al. (2013) Curr Protoc Chem Biol 5, 239), and summarized as follows: Cell pellets from 1.5 ml of S. pneumoniae cultures were harvested by centrifugation (16,100×g for 2 min at RT) and washed with phosphate buffered saline (PBS; pH 7.4). […] The protein concentration was measured by NanoDrop 1000 Spectrophotometer (Thermo Scientific) or NanoPhotometer P330 (IMPLEN). […] The protein bands were separated by gel electrophoresis for 1.5 h at 180 V, 400 mA, 60 W. The gel was rinsed with distilled water three times before fluorescence scanning. […]
After SDS-PAGE, labeled proteins were visualized at 50-μm resolution in gels using a Typhoon 9210 gel scanner (Amersham Biosciences) with 580-nm bandpass filter for TAMRA, 526-nm short-pass filter for fluorescein and BODIPY FL, and 670-nm bandpass filter for BODIPY 650/665. All gel images were analyzed using ImageJ software (National Institutes of Health). […]

With “(2S,3R)-β-lactone-L-Phe-fluorescein [Probe 7FL]” the “late divisional cells showing central septal labeling” value (S. pneumoniae cells; wild-type) was 85%, the “late divisional cells showing central septal labeling” value (S. pneumoniae cells; Δpbp1b) was 73% and the “PBPs labeled (gel-based labeling profile)” value (PBPs) was “only PBP1b and PBP2x”.
With “(2S, 3R)-β-lactone-D-Phe-TAMRA [Probe 8T]” the “cells with labeling excluded from the center of the division site” value (S. pneumoniae cells; after pre-treatment with 7FL, wild-type and Δpbp1b cells) was over 83%, the “late divisional cells showing central septal labeling” value (S. pneumoniae cells; wild-type) was 80.5% and the “late divisional cells showing central septal labeling” value (S. pneumoniae cells; Δpbp1b) was 75.6%. The “PBPs labeled (gel-based labeling profile)” value (PBPs) was “PBP1b, PBP2x and PBP2b”.
